Reference: patent US11547685B2, “Using probenecid to treat polycystic kidney disease” (Mayo Foundation for Medical Education and Research, priority 2017, dated 2023)
“And” between values parts separate entries of the source, which are not always exact repeats. Equal entries are not always repeated. “Also recorded” adds a separate entry of the source.

Experiments:
[1] = system: Pkd1^RC/RC PKD mouse model; test: PKD mouse model Pkd1RC/RC, kidney weight/body weight; type: in vivo; settings: Pkd1^RC/RC mice, 0.03 mg in 100 mg of chow, treated from age 4 weeks to 12 weeks
Procedure: The PKD mouse model, Pkd1^RC/RC, was used in this experiment. Probenecid (0.03 mg in 100 mg of chow), tolvaptan (0.03 mg in 100 mg of chow), or the combination of tolvaptan and probenecid were mixed with the food. […] The treatment started from age 4 weeks to 12 weeks. Mice were sacrificed, and the kidney weight (KW) was measured then standardized to body weight (BW). KW/BW ratio was an established method to report an effect of therapy in ADPKD mouse models.

mIMCD3 cells [2] = test: Time-lapse imaging of cytoplasmic calcium with Gcamp6s biosensor; type: cell-based, mouse; settings: probenecid 1000 μM, mIMCD3 cells stably transfected with Gcamps6s
Procedure: FIG. 1B. Probenecid increases intracytoplasmic calcium in mouse inner medullary collecting duct cells (mIMCD3). mIMCD3 cells were stably transfected with […] (cytoplasmic calcium genetically encoded biosensor) and grown on 35 mm glass bottom dish for at least 5 days post confluence then imaged under confocal microscopy every 3 seconds. Probenecid (1000 μM) was added to the medium at 10.5 minutes as noted by the blue bar. Fluorescence changes of a region of interest (ROI) in each cell are analyzed in Zen software and reported as a ratio of fluorescence over baseline fluorescence of each ROI (F/F0). An increase in F/F0 indicates relative increase in cytoplasmic calcium. Probenecid increased cytoplasmic calcium by 4-6 folds compared to baseline calcium. Two representative images at baseline and at peak increase of cytoplasmic calcium are shown. Mouse inner medullary collecting duct immortalized cell lines were used (mIMCD3): wild type (WT) or with a knockout of Pkd1 (Pkd^1-/-) or Pkd2 (Pkd^2-/-). WT cells were transfected with GCamp6s by electroporation (Bio Rad Gene pulser Xcell). […] Time lapses (every 3 seconds) were captured on Zeiss confocal microscope (LSM-780) and analyzed on Zeiss Zen Pro software. […] Fluorescence changes of a region of interest (ROI) in each cell were analyzed in Zen software and reported as a ratio of fluorescence over baseline fluorescence of each ROI (F/F0). […]

mIMCD3 cells [3] = test: Three dimensional (3D) cystogenesis assay, forskolin-induced; type: cell-based, mouse; settings: for reduction in cyst size: 5 days
Procedure: FIG. 2. Probenecid reduces forskolin-induced cystogenesis. mIMCD3 cells were grown in 3D matrigel-based extracellular matrix system and incubated with defined medium (control)+/−forskolin (10 μM) and probenecid (500 μM and 1000 μM) for 5 days. Cysts were imaged using an inverted phase microscope, and cyst size was quantified by measuring cyst diameter using Image J software and reported as cyst surface area (μm^2). Forskolin induced cystogenesis in wild type. […] FIG. 3. Probenecid reduces forskolin induced in vitro cystogenesis. As described in FIG. 3, cells were grown in matrigel based system for 5 days. All four groups shown were stimulated with 10 μM of forskolin. Different doses of probenecid were compared. A dose effect was seen as higher dose of probenecid were more efficacious in reducing cyst growth when stimulated with forskolin. […] 3D matrix was prepared by mixing 1:1 matrigel with defined medium (DMEM, 25 μg/L EGF, 5 μg/mL insulin, 5 μg/mL transferrin, 5 ng/mL selenium, penicillin, streptomycin, 5×10^−12 M triiodothyronine, and 5×10^−8 M hydrocortisone). Cells were mixed with the extracellular matrix and grown in 96-wells plate (8000-10000 cells per well). The desired drug concentration (forskolin 10 μM, probenecid 500-1000 μM) was added to the medium and changed on a daily basis. Images of the wells were taken daily by an inverted phase contrast microscope. Images from day 5 were analyzed using Image J software. Cyst surface was calculated using cyst diameter. mIMCD3 cells were grown in three dimensional matrix-based extracellular matrix. When stimulated with forskolin, these cells grew to form multiple cysts. […] The cyst reduction may be due to inhibition of cell proliferation, inhibition of chloride driven fluid secretion, or both.

mIMCD3 cells [4] = test: cAMP ELISA assay; type: cell-based, mouse
Procedure: FIG. 4. Probenecid enhances the intracellular accumulation of cAMP generated in response to forskolin. Wild type mIMCD3 cells were grown in 6 wells plate to confluence for at least 5 days then treated with either forskolin (10 μM) alone, probenecid alone (500 μM; PB 500), or forskolin (FSK) with probenecid (100 μM, PB100; 250 μM, PB250; and 500 μM, PB500). cAMP was measured by ELISA assay (pmol/mg of protein). […] Cells were grown in 6-wells culture dishes and incubated for at least 5 days post confluence. Cells were collected then homogenized in 0.1 M HCl. The protein concentration was measured by using BCA Protein Assay Kit. After centrifugation, the supernatant was further diluted in 0.1 M HCl. cAMP content was assessed by enzyme-linked immunosorbent assay. The results were expressed in picomoles per milligram of protein. Probenecid inhibited MRP1 mediated efflux of cAMP.

mIMCD3 cells [5] = test: Proliferation assay (Incucyte confluence); type: cell-based, mouse; settings: 7 days
Procedure: FIG. 5. Probenecid inhibits proliferation in mICMD3 cells. mIMCD3 cells were grown in 96 wells plate (2500 […]) for 7 days and imaged every 4 hours in an incubator-based imaging system (Incucyte). Confluence was measured at each time point. Cells were treated with defined medium (control), forskolin (FSK) 10 μM, or probenecid (PB) 500 μM and 1000 μM. Control and forskolin (FSK 10 μM) groups reached confluence faster when compared to probenecid alone or probenecid with forskolin. […] Cells were seeded in 96 wells plate (2500 cells/well) and grown for 7 days. Images were taken by an incubator-based microscope (Incucyte) every 4 hours and analyzed for confluence. Probenecid inhibited proliferation in a dose dependent manner. Cells were grown and imaged for 7 days in an incubator-based imaging system (IncuCyte) and analyzed for confluence.

embryonic kidneys = test: Forskolin-induced cystogenesis in cultured embryonic kidneys; settings: E13.5 kidneys, forskolin-stimulated, probenecid 500 μM, day 5
Procedure: FIG. 6 contains photographs showing that probenecid (500 μM) dramatically reduces cystogenesis in embryonic kidneys. Embryonic kidneys were harvested at E13.5 (embryos were 13-14 days old in utero). These kidneys were harvested and cultured on filters and stimulated with forskolin to induce cysts.

SMILES | mean KW/BW ratio [1] | increase in cytoplasmic calcium (F/F0) compared to baseline calcium (mIMCD3 cells [2]) | reduction in cyst size (mIMCD3 cells [3]; probenecid 500 μM with forskolin 10 μM) | reduction in cyst size (mIMCD3 cells [3]; probenecid 1000 μM with forskolin 10 μM) | reduction of cystic burden in 3D in vitro cystogenesis assay (mIMCD3 cells [3]; summary statement) | cystogenesis with probenecid alone (mIMCD3 cells [3]; without forskolin) | intracellular cAMP, probenecid combined with forskolin versus forskolin alone (mIMCD3 cells [4]; wild type mIMCD3, forskolin 10 μM plus probenecid 100, 250, 500 μM) | intracellular cAMP, probenecid alone (mIMCD3 cells [4]; wild type mIMCD3, probenecid 500 μM, no forskolin) | proliferation (confluence) (mIMCD3 cells [5]; Pkd2 null mIMCD3, probenecid 1000 μM alone) | proliferation (confluence) (mIMCD3 cells [5]; wild type mIMCD3, probenecid 500 and 1000 μM) | cyst formation in embryonic kidney culture (embryonic kidneys)
Cc1ccccc1C(=O)Nc1ccc(C(=O)N2CCCC(O)c3cc(Cl)ccc32)c(C)c1 (stereo not drawn) [tolvaptan] | 2.07% (±0.42) | – | – | – | – | – | – | – | – | – | –
CCCN(CCC)S(=O)(=O)c1ccc(C(=O)O)cc1 [probenecid, 4-(dipropyl-sulfamoyl) benzoic acid] | 2.56% (±0.42) | 4-6 fold and 4- to 6 fold | 68.4% | 82.6% | more than 80% | did not induce any cystogenesis | increased cAMP levels in a dose dependent fashion | did not increase cAMP | most completely inhibited proliferation | significantly inhibited proliferation | significantly inhibited; also recorded: almost completely prevents cyst formation
